Measured values as given in patent US20110269812A1, “NOVEL BENZYLIDENE-INDOLINONE AND THEIR MEDICAL AND DIAGNOSTIC USES” (Agency for Science, Technology and Research, priority 2008, published 2011).
Like-named read-outs stand apart in the source and are kept apart here.

Key:
[1] = test system: MCF7 (human breast cancer cell line); assay: Antiproliferative MTT assay, MCF7; assay type: cell-based; settings: 72 h incubation, mean ± SD, n = 3, read-out: IC50 MCF-7
Method: (§1) The antiproliferative activity of the compounds according to the invention was determined by the MTT assay on the following cell lines: MCF7 (human breast cancer cell line), HCT116 (human colon cancer cell line), and CCL186 (normal human diploid embryonic lung fibroblast). […] MCF7 and CCL186 cells were cultured in Eagle's Minimum Essential Medium (EMEM) with 1 mM sodium pyruvate, 1.5 g/L sodium bicarbonate, 2 mM L-glutamine supplemented with 10% FBS and 0.01% antibiotics. HCT116 cells were cultured in McCoy's 5A Medium with 2.2 g/L sodium bicarbonate supplemented with […] and 0.01% antibiotics. Cells were plated at the following densities: 10000 cells/well (MCF7), 4000 cells/well (HCT116), 5000 cells/well (CCL186). They were grown for 24 h in a 96-well plate, with 100 μl of corresponding medium in each well. The test compounds were prepared in DMSO and diluted to a series of concentrations with medium. Not more than 1% DMSO (final concentration) was present in each well. The test compounds were incubated with the cells for 72 h, after which 100 μl MTT solution (0.5 mg/ml in 1× PBS) was added for 3 h and the cells lysed to release the formazan product. The latter was dissolved in DMSO (150 μl) and absorbance determined within 30 min at 590 nm on a microtitre plate reader. Cell survival was given by the expression:
(§2) Cell survival (%)=[(Acells+test compound−Ablank)/(Auntreated cells−Ablank)]×100
(§3) where A is the absorbance of formazan measured at 590 nm in the test (Acells+test compound), control (Auntreated cells) or blank (Ablank) wells. Each concentration of test compound was evaluated on 3 separate occasions. […] The MTT assay was also carried out on Hepa1c1c7 cells for the purpose of determining cytotoxicity of test compounds. The same procedure was adopted except that the incubation period of compound with cells was 48 h, instead of 72 h.
(§4) The compounds were initially screened at a fixed concentration of 10 μM on the human cancer cell lines HCT116 and MCF7 cells.

[2] = test system: HCT116 (human colon cancer cell line); assay: Antiproliferative MTT assay, HCT116; assay type: cell-based; settings: 72 h incubation, mean ± SD
Method: as §1, §2, §3, §4

[3] = test system: THLE2; assay: Cell viability assay (Cell Titer-Glo), THLE2 normal hepatocyte cell line; assay type: cell-based; settings: Homo sapiens, THLE-2, 72 h, read-out: IC50 THLE2
Method: (§5) Cells were plated at 5000-7000 cells/per well and incubated for 24 h before treatment. […] Cell Titer-Glo (Promega, Madison, Wis.) assay was performed according to manufacturer's instruction with luminescence detected on SpectraMax M5 (Molecular Devices, Sunnyvale, Calif.). Data was expressed as percentage of viability vs. vehicle-treated controls.
(§6) The anti-cancer potential of these compounds against HCC were tested using a phenotypic assay where compounds were screened over 100-fold concentration range (0.1 to 10 μM) using two representative liver cancer cell lines, HepG2 and HuH7. Additionally, THLE2 was employed as normal hepatocyte cell line to differentiate anti-cancer potential from non-specific cytotoxicities.
(§7) Cell viability assay shown in FIG. 2 was analyzed by Prism5 for the determination of respective IC50 values.

[4] = test system: Hepa1c1c7 cells; assay: MTT growth inhibition / cytotoxicity on Hepa1c1c7 cells; assay type: cell-based, murine; settings: Mus musculus, Hepa-1c1c7, 48 h, highest concentration tested 25 μM
Method: as §1, §2, §3

[5] = test system: HuH7; assay: cells; assay type: cell-based, human; settings: for IC50 / viability at 10 µM: Homo sapiens; for IC50: Huh-7, 72 h, read-out: IC50 HuH7; for viability at 10 µM: Huh-7, 72 h, vs vehicle-treated controls, read-out: Percentage viability HuH7; for SR(HuH7/THLE2) safety ratio: percentage viability at 10 μM normalized with THLE2
Method: as §5, §6, §7
(§8) Cell viability was determined as described previous in Table 7. Percentage viability at 10 μM treatments was determined and safety ratios were calculated by normalizing survival in HCC cell lines to THLE2.

[6] = test system: HepG2; assay: cells; assay type: cell-based, human; settings: for IC50 / viability at 10 µM: Homo sapiens; for IC50: HepG2, 72 h, read-out: IC50 HepG2; for viability at 10 µM: HepG2, 72 h, vs vehicle-treated controls, read-out: Percentage viability HepG2; for SR(HepG2/THLE2) safety ratio: percentage viability at 10 μM normalized with THLE2
Method: as §5, §6, §7, §8

[7] = test system: HCT116 cells; assay: Cell cycle of synchronized HCT116 cells by flow cytometry (FACS); assay type: cell-based, human; settings: for Proportion of cells in G1 / Proportion of cells in G2/M / Proportion of cells in S / Proportion of cells in Sub-G1: 24 h; for type of cell cycle arrest caused: HCT116 cells, ≈1.5 × IC50, 24 h
Method: HCT116 cells were grown to confluence and maintained in this state for at least 5 days without change of media. The serum starved cells were then trypsinized and subcultured at densities of 5×10^5 cells/well in six-well plates. Growth media contained 10% fetal calf serum. The test compound was added either immediately to cells synchronized at G1 phase, or 24 h later when cells were synchronized at G2 phase. The cells were incubated with test compound for 24 h from the time of addition. After this time, the cells were harvested, trypsinized and fixed in 70% ice-cold ethanol for a minimum of 24 h. After centrifugation, the supernatant was discarded and the pellet was treated with RNase A (200 μg/ml) for 30 min at room temperature, followed by cell staining using propidium iodide at a final concentration of 20 μg/ml. The stained cells were then analyzed for cell cycle distribution in the sub-G1, G1, S and G2/M phases on a Dako Cytomation Cyan LX (Dako Colorado, Fort Collins, Colo., USA) equipped with an argon solid state laser (488 nm) using the Summit (version 4.3) software. Compounds were tested at a concentration of ≈1.5×IC50, with IC50 determined by the MTT assay on HCT116 cells.
To have a better understanding of the mechanisms underlying the antiproliferative activities of the compounds listed in Table 5, their effects on the cell cycle was investigated by fluorescence-activated cell sorter (FACS) analysis using flow cytometry. The experiments were designed to examine the effects of the test compounds on synchronized cell populations at the GI or G2/M phase. G1 synchronized cells were obtained by growing cells to confluence for up to 5 days and then stimulating their re-entry into the cell cycle by sub-culturing at lower densities. After 24 hours of growth, these cells would be aligned at the G2/M phase.
Cells aligned at the G2/M phase were similarly treated.

[8] = HCT 116 cells released from G2 Block, 2.5 μM
[9] = Homo sapiens, HCT-116, 72 h, n = 3
[10] = HCT 116 cells released from G1 Block, 15 μM
[11] = HCT 116 cells released from G2 Block, 15 μM
[12] = HCT 116 cells released from G1 Block, 5 μM
[13] = HCT 116 cells released from G2 Block, 5 μM

Row | Compound | IC50 [1] | melting point | IC50 ([2]; n = 3, read-out: IC50 HCT-116) | IC50 [3] | IC50 [4] | IC50 [5] | viability at 10 µM [5] | SR(HuH7/THLE2) safety ratio [5] | IC50 [6] | viability at 10 µM [6] | SR(HepG2/THLE2) safety ratio [6] | type of cell cycle arrest caused [7] | IC50 [2, 9] | Proportion of cells in G1 [7, 10] | Proportion of cells in G2/M [7, 10] | Proportion of cells in S [7, 10] | Proportion of cells in Sub-G1 [7, 10] | Proportion of cells in G1 [7, 11] | Proportion of cells in G2/M [7, 11] | Proportion of cells in S [7, 11] | other results
1 | COc1cccc(/C=C2/C(=O)Nc3cc(OC)ccc32)c1 [Compound 42, (E)-6-Methoxy-3-(3-methoxybenzylidene)indolin-2-one] | 1.2 ± 0.4 µM | 161 to 163 °C | 1.3 ± 0.4 µM | 1.2 µM | 9.8 µM | 4 µM | 49.2 ± 4% | 0.79 | 2.2 µM | 20.7 ± 2% | 1.89 | G2 arrest | – | – | – | – | – | – | – | – | Proportion of cells in G1 [7, 8]: 26.01%; Proportion of cells in G2/M [7, 8]: 43.57%; Proportion of cells in S [7, 8]: 15.36%; Proportion of cells in Sub-G1 [7, 8]: 30.54%
2 | COc1ccc2c(c1)NC(=O)/C2=C/c1ccc(OC)c(O)c1 [Compound 45, (E)-3-(3-Hydroxy-4-methoxybenzylidene)-6-methoxyindolin-2-one] | 3.7 ± 0.3 µM | 184 to 186 °C | 7.8 ± 0.9 µM | > 10 µM | 9.8 µM | 8 µM | 46.6 ± 1.8% | 1.54 | 1.4 µM | 19.9 ± 1.4% | 3.61 | G2 arrest | < 10 µM | 17.49% | 56.49% | 21.13% | 5.26% | 26.01% | 43.57% | 15.36% | Proportion of cells in Sub-G1 [7, 11]: 15.54%
3 | O=C1Nc2cc(F)ccc2/C1=C\c1cccc(C(F)(F)F)c1 [Compound 46, (E)-6-Fluoro-3-(3-(trifluoromethyl)benzylidene)indolin-2-one] | 8.4 ± 0.3 µM | 132 to 135 °C | 8.9 ± 0.3 µM | > 10 µM | 2.2 µM | 1.1 µM | 11.3 ± 1% | 6.39 | 0.4 µM | 4.2 ± 0.3% | 17.19 | G1 arrest | < 10 µM | 64.93% | 14.58% | 8.04% | 12.68% | 64.15% | 25.00% | 8.82% | IC50 ([1]; Homo sapiens, MCF7, 72 h): < 10 µM; Proportion of cells in Sub-G1 [7, 11]: 2.49%
4 | O=C1Nc2cc(Cl)ccc2/C1=C\c1cccc(C(F)(F)F)c1 [Compound 47, (E)-6-Chloro-3-(3-(trifluoromethyl)benzylidene)indolin-2-one] | 3.8 ± 0.3 µM | 204 to 207 °C | 7.5 ± 0.4 µM | > 10 µM | 1.1 µM | 0.5 µM | 3.3 ± 0.2% | 21.76 | 0.6 µM | 1.1 ± 0.09% | 65.27 | G1 arrest | < 10 µM | 65.55% | 15.13% | 7.10% | 12.39% | 53.47% | 28.39% | 8.05% | Proportion of cells in Sub-G1 [7, 11]: 10.62%
5 | COc1ccc2c(c1)NC(=O)/C2=C/c1cccc(C(F)(F)F)c1 [Compound 48, (E)-6-Methoxy-3-(3-(trifluoromethyl)benzylidene)indolin-2-one] | 1.9 ± 0.5 µM | 157 to 160 °C | 3.8 ± 0.6 µM | 3.6 µM | 2.6 µM | 2.3 µM | 27.3 ± 0.5% | 1.27 | 0.4 µM | 14.5 ± 1.3% | 2.40 | G2 arrest | – | – | – | – | – | – | – | – | Proportion of cells in G1 [7, 12]: 17.50%; Proportion of cells in G2/M [7, 12]: 59.16%; Proportion of cells in S [7, 12]: 19.12%; Proportion of cells in Sub-G1 [7, 12]: 4.39%; Proportion of cells in G1 [7, 13]: 30.55%; Proportion of cells in G2/M [7, 13]: 31.58%; Proportion of cells in S [7, 13]: 17.96%; Proportion of cells in Sub-G1 [7, 13]: 20.69%
